Results published in patent US10722501B2 (BAYER AKTIENGESELLSCHAFT, priority 2016, dated 2020).

The compounds below were run against T1, recombinant full-length human prolyl endopeptidase (PREP) (Homo sapiens, UniProt P48147) (assay: Biochemical human prolyl endopeptidase (PREP) assay with fluorescently labelled substrate). Conditions: substrate Z-Gly-Pro-AMC 50 μM, 32° C., 60 min; some as mean values from multiple independent determinations.
T1 construct: To recombinant full-length human prolyl endopeptidase (PREP, R&D-Systems, 4308-SE); purchased R&D-Systems 4308-SE
T1 sequence (P48147 1-710): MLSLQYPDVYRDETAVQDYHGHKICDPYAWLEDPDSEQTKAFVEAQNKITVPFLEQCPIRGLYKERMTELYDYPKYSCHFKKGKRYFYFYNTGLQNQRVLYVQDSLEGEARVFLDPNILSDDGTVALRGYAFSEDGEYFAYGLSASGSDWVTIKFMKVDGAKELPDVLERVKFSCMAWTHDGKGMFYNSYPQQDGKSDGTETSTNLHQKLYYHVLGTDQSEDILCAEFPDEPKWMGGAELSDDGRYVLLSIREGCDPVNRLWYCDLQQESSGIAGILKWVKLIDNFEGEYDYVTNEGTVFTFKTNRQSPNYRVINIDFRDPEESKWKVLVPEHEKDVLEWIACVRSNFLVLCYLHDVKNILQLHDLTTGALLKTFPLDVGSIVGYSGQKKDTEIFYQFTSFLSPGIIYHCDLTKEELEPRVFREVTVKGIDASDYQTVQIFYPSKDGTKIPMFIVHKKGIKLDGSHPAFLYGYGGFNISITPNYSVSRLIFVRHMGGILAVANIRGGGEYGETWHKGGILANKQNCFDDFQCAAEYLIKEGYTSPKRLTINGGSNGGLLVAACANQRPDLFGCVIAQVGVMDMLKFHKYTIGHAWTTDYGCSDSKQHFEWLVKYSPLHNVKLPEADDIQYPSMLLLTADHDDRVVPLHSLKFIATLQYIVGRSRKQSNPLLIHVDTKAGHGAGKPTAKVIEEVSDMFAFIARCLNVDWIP
Method in brief: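 Initial rates of fluorescence increase from 50 μM Z-Gly-Pro-AMC cleavage (ex 360/em 465 nm, 60 min, 32° C) give percent PREP activity versus no-compound control, and IC50 is interpolated. Enzyme used at 0.4 nM (final, example) in Tris pH 7.5 with EDTA, GSH, BSA and Brij-35; compounds span 1 nM to 30 μM.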

First: O=C(C1CC(C(F)(F)F)Cc2nn(Cc3ccc(Cl)cn3)c(=O)n21)N1CC[C@H](F)C1 (mixture of isomers) [Example 314, (5RS,7RS)-2-[(5-Chloropyridin-2-yl)methyl]-5-{[(3S)-3-fluoropyrrolidin-1-yl]carbonyl}-7-(trifluoromethyl)-5,6,7,8-tetrahydro[1,2,4]triazolo[4,3-a]pyridin-3(2H)-one]
Second: O=C(C1CC(C(F)(F)F)Cc2nn(Cc3ncc(Cl)cc3F)c(=O)n21)N1CC[C@H](F)C1 (mixture of isomers) [Example 263, (5RS,7RS)-2-[(5-Chloro-3-fluoropyridin-3-yl)methyl]-5-{[(3S)-3-fluoropyrrolidin-1-yl]carbonyl}-7-(trifluoromethyl)-5,6,7,8-tetrahydro[1,2,4]triazolo[4,3-a]pyridin-3(2H)-one]
The IC50 of the first is 2-fold lower: 1.4 nM for the first, 2.8 nM for the second.

Compared with `O=C(C1CCCc2nn(Cc3ccc(F)c(Cl)c3)c(=O)n21)N1CC(O)C1` (racemic) [Example 95, (5RS)-2-(3-Chloro-4-fluorobenzyl)-5-[(3-hydroxyazetidin-1-yl)carbonyl]-5,6,7,8-tetrahydro[1,2,4]triazolo[4,3-a]pyridin-3(2H)-one], `Cc1ccc(Cn2nc3n(c2=O)[C@H](C(=O)N2C[C@@H](F)[C@@H](F)C2)CCC3)cc1` [Example 150, (5S)-5-{[cis-3,4-Difluoropyrrolidin-1-yl]carbonyl}-2-(4-methylbenzyl)-5,6,7,8-tetrahydro[1,2,4]triazolo[4,3-a]pyridin-3(2H)-one] is 16-fold lower in IC50: 9 nM for the first, 0.58 nM for the second. The second is the more potent here.

`O=C([C@@H]1CCC(F)(F)c2nn(Cc3ccc(C(F)(F)F)nc3)c(=O)n21)N1CC[C@H](F)C1` [Example 278, (5S)-8,8-Difluoro-5-{[(3S)-3-fluoropyrrolidin-1-yl]carbonyl}-2-{[6-(trifluoromethyl)pyridin-3-yl]methyl}-5,6,7,8-tetrahydro[1,2,4]triazolo[4,3-a]pyridin-3(2H)-one] and `O=C(C1C(C(F)(F)F)CCc2nn(Cc3ccc(C(F)(F)F)nc3)c(=O)n21)N1CC[C@H](F)C1` (mixture of isomers) [Example 284, (5RS,6RS)-5-{[(3S)-3-Fluoropyrrolidin-1-yl]carbonyl}-6-(trifluoromethyl)-2-{[6-(trifluoromethyl)pyridin-3-yl]methyl}-5,6,7,8-tetrahydro[1,2,4]triazolo[4,3-a]pyridin-3(2H)-one] are within 1.5-fold of each other in IC50: 3.3 nM for the first, 3 nM for the second.

`O=C(C1CC(C(F)(F)F)Cc2nn(Cc3ccc(Cl)nc3)c(=O)n21)N1CCC(F)(F)C1` (racemic) [Example 230, (5RS,7RS)-2-[(6-Chloropyridin-3-yl)methyl]-5-[(3,3-difluoropyrrolidin-1-yl)carbonyl]-7-(trifluoromethyl)-5,6,7,8-tetrahydro[1,2,4]triazolo[4,3-a]pyridin-3(2H)-one] and `O=C(C1CC(C(F)(F)F)Cc2nn(Cc3ccc(Cl)cn3)c(=O)n21)N1CCC(F)(F)C1` (single isomer, unassigned) [Example 567, (5RS,7RS)-2-[(5-Chloropyridin-2-yl)methyl]-5-[(3,3-difluoropyrrolidin-1-yl)carbonyl]-7-(trifluoromethyl)-5,6,7,8-tetrahydro[1,2,4]triazolo[4,3-a]pyridin-3(2H)-one] are within 1.5-fold of each other in IC50: 2.3 nM for the first, 2.7 nM for the second.

Compared with `O=C([C@@H]1CCCc2nn(CC3CCC(C(F)(F)F)CC3)c(=O)n21)N1CCCC1` (single isomer, unassigned) [Example 185], `O=C(C1CCCc2nn(Cc3cc(C(F)(F)F)ccc3C(F)(F)F)c(=O)n21)N1CCCC1` (racemic) [Example 65, (5RS)-2-[2,5-Bis(trifluoromethyl)benzyl]-5-(pyrrolidin-1-ylcarbonyl)-5,6,7,8-tetrahydro[1,2,4]triazolo[4,3-a]pyridin-3(2H)-one] is 5-fold higher in IC50: 0.37 nM for the first, 1.85 nM for the second.

First: O=C([C@@H]1CCCc2nn(Cc3ccc(Br)cc3F)c(=O)n21)N1CC[C@H](F)C1 [Example 214, (5S)-2-(4-Bromo-2-fluorobenzyl)-5-{[(3S)-3-fluoropyrrolidin-1-yl]carbonyl}-5,6,7,8-tetrahydro[1,2,4]triazolo[4,3-a]pyridin-3(2H)-one]
Second: O=C([C@@H]1CCCc2nn(Cc3ccc(Br)cn3)c(=O)n21)N1CC[C@H](F)C1 [Example 510, (5S)-2-[(5-Bromopyridin-2-yl)methyl]-5-{[(3S)-3-fluoropyrrolidin-1-yl]carbonyl}-5,6,7,8-tetrahydro[1,2,4]triazolo[4,3-a]pyridin-3(2H)-one]
The IC50 of the first is 2.7-fold lower: 0.2 nM for the first, 0.535 nM for the second.

Compared with `O=C([C@@H]1CCCc2nn(Cc3ncc(Cl)cc3F)c(=O)n21)N1CC(F)(F)C1` [Example 409, (5S)-2-[(5-Chloro-3-fluoropyridin-2-yl)methyl]-5-[(3,3-difluoroazetidin-1-yl)carbonyl]-5,6,7,8-tetrahydro[1,2,4]triazolo[4,3-a]pyridin-3(2H)-one], `O=C([C@@H]1CCCc2nn(Cc3ncc(C(F)(F)F)cc3Cl)c(=O)n21)N1CC(F)C1` [Example 402, (5S)-2-{[3-Chloro-5-(trifluoromethyl)pyridin-2-yl]methyl}-5-[(3-fluoroazetidin-1-yl)carbonyl]-5,6,7,8-tetrahydro[1,2,4]triazolo[4,3-a]pyridin-3(2H)-one] is 5.2-fold lower in IC50: 14 nM for the first, 2.7 nM for the second. The second is the more potent here.

First: O=C(C1CCCc2nn(Cc3ccnc(Cl)c3)c(=O)n21)N1CCCC1 (racemic) [Example 59, (5RS)-2-[(2-Chloropyridin-4-yl)methyl]-5-(pyrrolidin-1-ylcarbonyl)-5,6,7,8-tetrahydro[1,2,4]triazolo[4,3-a]pyridin-3(2H)-one]
Second: CC(c1ccc(Cl)cc1)n1nc2n(c1=O)C(C(=O)N1CCCC1)CCC2 (single isomer, unassigned) [Example 4, (5RS)-2-[(1 RS)-1-(4-Chlorophenyl)ethyl]-5-(pyrrolidin-1-ylcarbonyl)-5,6,7,8-tetrahydro[1,2,4]triazolo[4,3-a]pyridin-3(2H)-one]
The IC50 of the first is 5.5-fold higher: 12.2 nM for the first, 2.2 nM for the second. The second is the more potent here.

Going from `O=C([C@@H]1CCCc2nn(Cc3cc(C(F)(F)F)c(Cl)cn3)c(=O)n21)N1C[C@@H](F)[C@@H](F)C1` [Example 372, (5S)-2-{[5-Chloro-4-(trifluoromethyl)pyridin-2-yl]methyl}-5-{[(3R,4S)-3,4-difluoropyrrolidin-1-yl]carbonyl}-5,6,7,8-tetrahydro[1,2,4]triazolo[4,3-a]pyridin-3(2H)-one] to `O=C(C1C(C(F)(F)F)CCc2nn(Cc3ncc(Cl)cc3Cl)c(=O)n21)N1CC(F)C1` (single isomer, unassigned) [Example 307, (5RS,6RS)-2-[(3,5-Dichloropyridin-2-yl)methyl]-5-[(3-fluoroazetidin-1-yl)carbonyl]-6-(trifluoromethyl)-5,6,7,8-tetrahydro[1,2,4]triazolo[4,3-a]pyridin-3(2H)-one], the IC50 rises from 1.3 nM to 98.5 nM (76-fold).

First: O=C([C@@H]1CCCc2nn(CC3(c4ccc(F)cc4F)CC3)c(=O)n21)N1CCC(F)(F)C1 [Example 359, (5S)-2-{[1-(2,4-Difluorophenyl)cyclopropyl]methyl}-5-[(3,3-difluoropyrrolidin-1-yl)carbonyl]-5,6,7,8-tetrahydro[1,2,4]triazolo[4,3-a]pyridin-3(2H)-one]
Second: COc1ccc(Cn2nc3n(c2=O)[C@H](C(=O)N2CCC(F)(F)C2)CCC3)cn1 [Example 434, (5S)-5-[(3,3-Difluoropyrrolidin-1-yl)carbonyl]-2-[(6-methoxypyridin-3-yl)methyl]-5,6,7,8-tetrahydro[1,2,4]triazolo[4,3-a]pyridin-3(2H)-one]
The IC50 of the first is 2.2-fold lower: 1.1 nM for the first, 2.4 nM for the second.

Compared with `Cc1ccc(Cn2nc3n(c2=O)C(C(=O)N2CCC(=O)C2)CCC3)cc1` (single isomer, unassigned) [Example 119, (5RS)-2-(4-Methylbenzyl)-5-[(3-oxopyrrolidin-1-yl)carbonyl]-5,6,7,8-tetrahydro[1,2,4]triazolo[4,3-a]pyridin-3(2H)-one], `O=C([C@@H]1CCCc2nn(Cc3cc(C(F)(F)F)nc4ccccc34)c(=O)n21)N1CC[C@H](O)C1` [Example 496, (5S)-5-{[(3S)-3-Hydroxypyrrolidin-1-yl]carbonyl}-2-{[2-(trifluoromethyl)quinolin-4-yl]methyl}-5,6,7,8-tetrahydro[1,2,4]triazolo[4,3-a]pyridin-3(2H)-one] is 13-fold higher in IC50: 1.4 nM for the first, 18 nM for the second.

Compared with `O=C(C1CC(C(F)(F)F)Cc2nn(Cc3ncc(C(F)(F)F)cc3Cl)c(=O)n21)N1CCC(F)(F)C1` (single isomer, unassigned) [Example 565, (5RS,7RS)-2-{[3-Chloro-5-(trifluoromethyl)pyridin-2-yl]methyl}-5-[(3,3-difluoropyrrolidin-1-yl)carbonyl]-7-(trifluoromethyl)-5,6,7,8-tetrahydro[1,2,4]triazolo[4,3-a]pyridin-3(2H)-one], `O=C(C1CC(C(F)(F)F)Cc2nn(Cc3ccc(Cl)nc3)c(=O)n21)N1CCCC1` (single isomer, unassigned) [Example 229, (5RS,7RS)-2-[(6-Chloropyridin-3-yl)methyl]-5-(pyrrolidin-1-ylcarbonyl)-7-(trifluoromethyl)-5,6,7,8-tetrahydro[1,2,4]triazolo[4,3-a]pyridin-3(2H)-one] is 4.4-fold lower in IC50: 1.5 nM for the first, 0.34 nM for the second. The second is the more potent here.
